{"source": "patent US12161756B2", "about": "“Pharmaceutical-loaded nanocomposite for treating pulmonary infections” (Imam Abdulrahman Bin Faisal University, priority 2021, dated 2024)", "system": "HFF normal cells (Human foreskin fibroblasts)", "protocol": "Toxicity studies were carried out to evaluate any toxic effect of developed nanoformulations. Cells were treated for 48 h with the following conditions for Zinc-containing nanocomposites: ZnFe2O4/Halloysite, Halloysite, Dexamethasone (Dex), ZnFe2O4/Halloysite/Dex, ZnFe2O4/Halloysite/Dex/PEG, and PEG. Similar protocol was used for nickel-containing nanocomposites. Treatment concentrations were as follows: 0.0375, 0.075, 0.15, and 0.3 mg/mL. In addition, cells were treated with Dex at concentrations to reflect that loaded in the nanocomposite as follows: 0.00181, 0.00362, 0.00725, and 0.01449 mg/mL. […] To choose the optimal dose, cells were exposed to specific doses at different time points. Cells were treated with dose 2 (0.075 mg/mL, see FIG. 9A), dose 3 (0.15 mg/mL, see FIG. 9B), or dose 4 (0.3 mg/mL, see FIG. 9C) for 24, 48, and 72 h."}
{"smiles": "C[C@@H]1C[C@H]2[C@@H]3CCC4=CC(=O)C=C[C@]4(C)[C@@]3(F)[C@@H](O)C[C@]2(C)[C@@]1(O)C(=O)CO", "note": "[Dexamethasone, dexamethasone]", "values": [{"measurement": "toxicity to cells", "value": "induce toxicity"}, {"measurement": "dexamethasone dose found to be less toxic / usable dose", "setting": "human, 48 h", "value": "up to 0.00362 mg/mL"}]}
